Test results reported in ChEMBL document CHEMBL3885881, “DrugMatrix”.

Species on record: Rattus norvegicus
Experiment: DrugMatrix - Regimen: Daily Repeat
Type: toxicity, organism-based, Sprague-Dawley
Design: regimen Daily Repeat, gender Male, age 6-8 weeks
Conditions: in vivo, iv, vehicle 100 % SALINE; for ABSOLUTE BASOPHIL / ABSOLUTE EOSINOPHIL / ABSOLUTE LYMPHOCYTE / ABSOLUTE MONOCYTE / ABSOLUTE SEGMENTED NEUTROPHIL / BASOPHIL / EOSINOPHIL / ERYTHROCYTE COUNT / HEMATOCRIT / HEMOGLOBIN / LEUKOCYTE COUNT / LYMPHOCYTE / MEAN CORPUSCULAR HEMOGLOBIN / MEAN CORPUSCULAR HEMOGLOBIN CONCENTRATION / MEAN CORPUSCULAR VOLUME / MONOCYTE / NEUTROPHIL / NUCLEATED RED BLOOD CELLS / PLATELET COUNT: tissue Blood; for ALANINE AMINOTRANSFERASE / ALBUMIN / ALKALINE PHOSPHATASE / ASPARTATE AMINOTRANSFERASE / BLOOD UREA NITROGEN / CARBON DIOXIDE / CHLORIDE / CHOLESTEROL / CREATINE PHOSPHOKINASE / CREATININE / GLUCOSE / LACTATE DEHYDROGENASE / LIPASE / PHOSPHORUS / POTASSIUM / SODIUM / TOTAL BILIRUBIN / TOTAL PROTEIN / URIC ACID: tissue Plasma
[1] = 23 mg/kg, 120 h, dose level High, time 5 day
[2] = […], 72 h, dose 2.3 mg/Kg, dose level Low, time 3 day
[3] = […], 120 h, dose 2.3 mg/Kg, dose level Low, time 5 day

Question: `COC(=O)C[C@](O)(CCC(C)(C)O)C(=O)O[C@@H]1C(OC)=C[C@]23CCCN2CCc2cc4c(cc2[C@H]13)OCO4` [HARRINGTONINE] was tested. Which “ABSOLUTE BASOPHIL” value [1] did it give?
Answer: 0 CELLS/uL

Question: What about the “ABSOLUTE EOSINOPHIL” value [1] of the same molecule?
Answer: 0 CELLS/uL

Question: And the “ABSOLUTE LYMPHOCYTE” value [1]?
Answer: 5612 CELLS/uL

Question: What about the “ABSOLUTE MONOCYTE” value [1] of the same molecule?
Answer: 134.67 CELLS/uL

Question: What about the “ABSOLUTE SEGMENTED NEUTROPHIL” value [1] of the same molecule?
Answer: 53.33 CELLS/uL

Question: And the BASOPHIL [1]?
Answer: 0%

Question: And the EOSINOPHIL [1]?
Answer: 0%

Question: What about the “ERYTHROCYTE COUNT” value [1] of the same molecule?
Answer: 5.85 x10E6/uL

Question: What about the HEMATOCRIT [1] of the same molecule?
Answer: 36.17%

Question: And the HEMOGLOBIN [1]?
Answer: 13.93 G/DL

Question: What about the “LEUKOCYTE COUNT” value [1] of the same molecule?
Answer: 5.8 x10E3/uL

Question: What about the LYMPHOCYTE [1] of the same molecule?
Answer: 96.67%

Question: What about the “MEAN CORPUSCULAR HEMOGLOBIN” value [1] of the same molecule?
Answer: 23.83 pg

Question: What about the “MEAN CORPUSCULAR HEMOGLOBIN CONCENTRATION” value [1] of the same molecule?
Answer: 38.53 G/DL

Question: And the “MEAN CORPUSCULAR VOLUME” value [1]?
Answer: 61.87 fL

Question: And the MONOCYTE [1]?
Answer: 2.33%

Question: What about the NEUTROPHIL [1] of the same molecule?
Answer: 1%

Question: And the “NUCLEATED RED BLOOD CELLS” value [1]?
Answer: 0 /100WBC

Question: And the “PLATELET COUNT” value [1]?
Answer: 414 x10E3/uL

Question: What about the “ALANINE AMINOTRANSFERASE” value [1] of the same molecule?
Answer: 83 u/L

Question: And the ALBUMIN [1]?
Answer: 3.47 G/DL

Question: What about the “ALKALINE PHOSPHATASE” value [1] of the same molecule?
Answer: 214 u/L

Question: What about the “ASPARTATE AMINOTRANSFERASE” value [1] of the same molecule?
Answer: 226.33 u/L

Question: And the “BLOOD UREA NITROGEN” value [1]?
Answer: 15.67 mg/dL

Question: And the “CARBON DIOXIDE” value [1]?
Answer: 24 mmol/L

Question: What about the CHLORIDE [1] of the same molecule?
Answer: 100.33 MEQ/L

Question: What about the CHOLESTEROL [1] of the same molecule?
Answer: 71 mg/dL

Question: And the “CREATINE PHOSPHOKINASE” value [1]?
Answer: 222 u/L

Question: And the CREATININE [1]?
Answer: 0.27 mg/dL

Question: What about the GLUCOSE [1] of the same molecule?
Answer: 151.67 mg/dL

Question: What about the “LACTATE DEHYDROGENASE” value [1] of the same molecule?
Answer: 292.33 u/L

Question: And the LIPASE [1]?
Answer: 7.33 u/L

Question: And the PHOSPHORUS [1]?
Answer: 9.13 mg/dL

Question: What about the POTASSIUM [1] of the same molecule?
Answer: 6.23 MEQ/L

Question: And the SODIUM [1]?
Answer: 143.4 MEQ/L

Question: And the “TOTAL BILIRUBIN” value [1]?
Answer: 0.23 mg/dL

Question: And the “TOTAL PROTEIN” value [1]?
Answer: 5.73 G/DL

Question: And the “URIC ACID” value [1]?
Answer: 1.2 mg/dL

Question: And the “ABSOLUTE BASOPHIL” value [2]?
Answer: 0 CELLS/uL

Question: And the “ABSOLUTE EOSINOPHIL” value [2]?
Answer: 41.67 CELLS/uL

Question: What about the “ABSOLUTE LYMPHOCYTE” value [2] of the same molecule?
Answer: 11224.33 CELLS/uL

Question: What about the “ABSOLUTE MONOCYTE” value [2] of the same molecule?
Answer: 81.33 CELLS/uL

Question: What about the “ABSOLUTE SEGMENTED NEUTROPHIL” value [2] of the same molecule?
Answer: 586 CELLS/uL

Question: What about the BASOPHIL [2] of the same molecule?
Answer: 0%

Question: And the EOSINOPHIL [2]?
Answer: 0.33%

Question: And the “ERYTHROCYTE COUNT” value [2]?
Answer: 5.44 x10E6/uL

Question: And the HEMATOCRIT [2]?
Answer: 34.9%

Question: And the HEMOGLOBIN [2]?
Answer: 13.83 G/DL

Question: And the “LEUKOCYTE COUNT” value [2]?
Answer: 11.93 x10E3/uL

Question: And the LYMPHOCYTE [2]?
Answer: 94%

Question: What about the “MEAN CORPUSCULAR HEMOGLOBIN” value [2] of the same molecule?
Answer: 25.47 pg

Question: And the “MEAN CORPUSCULAR HEMOGLOBIN CONCENTRATION” value [2]?
Answer: 39.63 G/DL

Question: What about the “MEAN CORPUSCULAR VOLUME” value [2] of the same molecule?
Answer: 64.17 fL

Question: And the MONOCYTE [2]?
Answer: 0.67%

Question: And the NEUTROPHIL [2]?
Answer: 5%

Question: What about the “NUCLEATED RED BLOOD CELLS” value [2] of the same molecule?
Answer: 0 /100WBC

Question: What about the “PLATELET COUNT” value [2] of the same molecule?
Answer: 1133.33 x10E3/uL

Question: And the “ALANINE AMINOTRANSFERASE” value [2]?
Answer: 48.67 u/L

Question: And the ALBUMIN [2]?
Answer: 4.13 G/DL

Question: And the “ALKALINE PHOSPHATASE” value [2]?
Answer: 303.67 u/L

Question: What about the “ASPARTATE AMINOTRANSFERASE” value [2] of the same molecule?
Answer: 64.33 u/L

Question: And the “BLOOD UREA NITROGEN” value [2]?
Answer: 15.67 mg/dL

Question: What about the “CARBON DIOXIDE” value [2] of the same molecule?
Answer: 31.67 mmol/L

Question: And the CHLORIDE [2]?
Answer: 101 MEQ/L

Question: What about the CHOLESTEROL [2] of the same molecule?
Answer: 51 mg/dL

Question: And the “CREATINE PHOSPHOKINASE” value [2]?
Answer: 184 u/L

Question: What about the CREATININE [2] of the same molecule?
Answer: 0.17 mg/dL

Question: And the GLUCOSE [2]?
Answer: 163 mg/dL

Question: And the “LACTATE DEHYDROGENASE” value [2]?
Answer: 69 u/L

Question: And the LIPASE [2]?
Answer: 8.67 u/L

Question: And the PHOSPHORUS [2]?
Answer: 12.37 mg/dL

Question: What about the POTASSIUM [2] of the same molecule?
Answer: 6.49 MEQ/L

Question: And the SODIUM [2]?
Answer: 146.83 MEQ/L

Question: What about the “TOTAL BILIRUBIN” value [2] of the same molecule?
Answer: 0.2 mg/dL

Question: What about the “TOTAL PROTEIN” value [2] of the same molecule?
Answer: 5.5 G/DL

Question: What about the “URIC ACID” value [2] of the same molecule?
Answer: 2 mg/dL

Question: What about the “ABSOLUTE BASOPHIL” value [3] of the same molecule?
Answer: 0 CELLS/uL

Question: And the “ABSOLUTE EOSINOPHIL” value [3]?
Answer: 0 CELLS/uL

Question: And the “ABSOLUTE LYMPHOCYTE” value [3]?
Answer: 10385.33 CELLS/uL

Question: And the “ABSOLUTE MONOCYTE” value [3]?
Answer: 95.33 CELLS/uL

Question: And the “ABSOLUTE SEGMENTED NEUTROPHIL” value [3]?
Answer: 1152.67 CELLS/uL

Question: And the BASOPHIL [3]?
Answer: 0%

Question: What about the EOSINOPHIL [3] of the same molecule?
Answer: 0%

Question: And the “ERYTHROCYTE COUNT” value [3]?
Answer: 5.81 x10E6/uL

Question: What about the HEMATOCRIT [3] of the same molecule?
Answer: 35.2%

Question: And the HEMOGLOBIN [3]?
Answer: 13.83 G/DL

Question: And the “LEUKOCYTE COUNT” value [3]?
Answer: 11.63 x10E3/uL

Question: What about the LYMPHOCYTE [3] of the same molecule?
Answer: 90.67%

Question: What about the “MEAN CORPUSCULAR HEMOGLOBIN” value [3] of the same molecule?
Answer: 23.83 pg

Question: What about the “MEAN CORPUSCULAR HEMOGLOBIN CONCENTRATION” value [3] of the same molecule?
Answer: 39.3 G/DL

Question: And the “MEAN CORPUSCULAR VOLUME” value [3]?
Answer: 60.6 fL

Question: And the MONOCYTE [3]?
Answer: 0.67%

Question: What about the NEUTROPHIL [3] of the same molecule?
Answer: 8.67%

Question: And the “NUCLEATED RED BLOOD CELLS” value [3]?
Answer: 0.33 /100WBC

Question: And the “PLATELET COUNT” value [3]?
Answer: 1139 x10E3/uL

Question: And the “ALANINE AMINOTRANSFERASE” value [3]?
Answer: 52 u/L

Question: What about the ALBUMIN [3] of the same molecule?
Answer: 4.03 G/DL

Question: What about the “ALKALINE PHOSPHATASE” value [3] of the same molecule?
Answer: 408.33 u/L

Question: What about the “ASPARTATE AMINOTRANSFERASE” value [3] of the same molecule?
Answer: 89.67 u/L

Question: And the “BLOOD UREA NITROGEN” value [3]?
Answer: 18.67 mg/dL

Question: And the “CARBON DIOXIDE” value [3]?
Answer: 25 mmol/L

Question: And the CHLORIDE [3]?
Answer: 102 MEQ/L

Question: And the CHOLESTEROL [3]?
Answer: 60 mg/dL

Question: What about the “CREATINE PHOSPHOKINASE” value [3] of the same molecule?
Answer: 576 u/L

Question: And the CREATININE [3]?
Answer: 0.16 mg/dL

Question: What about the GLUCOSE [3] of the same molecule?
Answer: 170.33 mg/dL

Question: What about the “LACTATE DEHYDROGENASE” value [3] of the same molecule?
Answer: 158.67 u/L

Question: What about the LIPASE [3] of the same molecule?
Answer: 8.67 u/L

Question: What about the PHOSPHORUS [3] of the same molecule?
Answer: 12.3 mg/dL

Question: And the POTASSIUM [3]?
Answer: 6.27 MEQ/L

Question: What about the SODIUM [3] of the same molecule?
Answer: 145.13 MEQ/L

Question: What about the “TOTAL BILIRUBIN” value [3] of the same molecule?
Answer: 0.2 mg/dL

Question: And the “TOTAL PROTEIN” value [3]?
Answer: 5.73 G/DL

Question: What about the “URIC ACID” value [3] of the same molecule?
Answer: 1.6 mg/dL
